Earlier results on one molecule are cited in patent publication US10730863B2, “Bridged bicyclic compounds as farnesoid X receptor modulators” (BRISTOL-MYERS SQUIBB COMPANY, priority 2017, dated 2020).

The conditions of series [1]: 6-week trial, T2DM patients with NAFLD; cited from earlier work.
The conditions of series [2]: 72-week trial, patients with NASH, liver biopsies; cited from earlier work.

For `CC[C@H]1[C@@H](O)[C@@H]2[C@H](CC[C@]3(C)[C@@H]([C@H](C)CCC(=O)O)CC[C@@H]23)[C@@]2(C)CC[C@@H](O)C[C@@H]12` [OCA, obeticholic acid], in series [1], the body weight result is recorded as “reduced” and the insulin sensitivity result is recorded as “statistically significantly improved”. Further, the “hepatic steatosis, lobular inflammation, hepatocyte ballooning, and fibrosis” value in series [2] is given as “statistically significantly improved”.
